According to patent US10987325B2, “Compositions and uses thereof for treating inflammatory diseases and probiotic compositions” (CHAIN Biotechnology Limited, priority 2016, dated 2021):

Columns and labels:
[1] = test system: primary human intestinal organoids; test: Primary human intestinal organoids, TNFα (40 ng/mL) induced inflammation, mRNA of NF-κB and TNFα by qPCR; format: cell-based; details: 10 μM, 18 hours
[2] = test system: IL-23; test: Primary human intestinal organoids, TNF-α (60 ng/mL), IL-23 mRNA at increasing concentrations, qPCR; format: cell-based; details: 24 hours; for impact on IL-23 expression compared with butyrate: at 10-100 μM
Procedure: Primary human intestinal organoids were cultured for 8 weeks prior to experiments as described in […] et al. (2013) Stem Cell Reports.

[3] = test system: ex vivo colon tissue samples; test: Ex-vivo human colon tissue model, TNF-α stimulus, protein in culture supernatants by Luminex; format: cell-based
Text: Colorectal specimens can be obtained from surgical resections of intestinal tissue or from biopsies, after receiving signed informed consent from the patients. Following resection of tissue, specimens are kept in a specimen collection pot containing DMEM for transportation to the laboratory. Put the specimen in a Petri plate with some medium. Strip the muscle from the resected specimen with sterile scalpel. Transfer the remaining tissue into a new Petri plate with medium and cut the tissue into explants comprising both epithelial and muscularis mucosae (Berry […]. Methods Mol. Biol. 2011; 665: 133-60). Proceed to assay. To induce inflammation, explants are incubated with 100 μl of inflammatory stimulus (TNF-α 15 μg/ml) in 96-well U-bottom sterile plates. Incubate explants for one hour with […] of complete medium (DMEM containing FCS, L-glutamine and antibiotics). […] Tissue explants are then cultured at 37° C. in an atmosphere containing 5% CO2 for 24 hours. Negative controls are tissue explants cultured without stimulus nor candidate compounds (add 200 μl of complete medium). Positive controls are explants treated only with inflammatory stimulus. Following culture, remove tissue explants from culture wells, spin down plates and harvest 180 μl of the culture supernatant. Freeze supernatants and tissue explants at -80° C. Proceed to quantification of analytes of interest in supernatants and/or tissue explants. The Luminex method was used to determine protein concentration in culture supernatants: Luminex Protocol: In house assay was conducted by Dr Carolina Herrera at St Mary's Hospital, Paddington, London. Luminex Assay Buffer: PBS, goat serum, mouse serum, Tween 20, Tris pH 7-8. Luminex Wash Buffer: PBS, Tween-20. Procedure: […] Relative protein level [ng/mL] was determined using a standard curve.

[4] = test system: ex vivo colon tissue samples; test: Ex-vivo human colon tissue model, TNF-α stimulus, Proteome Profiler Human XL Cytokine Array; format: cell-based; details: TNF-α 60 min then 10 mM for 24 hours, versus TNF-α alone
Procedure: To induce inflammation, explants are incubated with 100 μl of inflammatory stimulus (TNF-α 15 μg/ml) in 96-well U-bottom sterile plates. Incubate explants for one hour with […] of complete medium (DMEM containing FCS, L-glutamine and antibiotics). […] Tissue explants are then cultured at 37° C. in an atmosphere containing 5% CO2 for 24 hours. Negative controls are tissue explants cultured without stimulus nor candidate compounds (add 200 μl of complete medium). Positive controls are explants treated only with inflammatory stimulus. Following culture, remove tissue explants from culture wells, spin down plates and harvest 180 μl of the culture supernatant. Freeze supernatants and tissue explants at −80° C. Proceed to quantification of analytes of interest in supernatants and/or tissue explants. A Proteome Profiler™ Array was used to measure the relative abundance of a larger set of proteins and cytokines involved in the immune response. The experimental conditions and the preparation of the colon tissue samples was the same as described above. The Human XL Cytokine Array Kit (www.rndsystems.com), Catalog Number ARY022 was used for this experiment. Cytokines, chemokines and growth factors are extracellular signaling molecules that mediate cell to cell communication. These molecules are released from cells and have critical roles in many biological processes such as cellular growth, differentiation, gene expression, migration, immunity and inflammation. In most biological processes, multiple cytokines operate in a large network, where the action of one cytokine is regulated by the presence or absence of other cytokines. The Human XL Cytokine Array Kit is a rapid, sensitive, and economic tool to simultaneously detect cytokine differences between samples. The relative expression levels of 102 human soluble proteins can be determined without performing numerous immunoassays. Capture and control antibodies have been spotted in duplicate on nitrocellulose membranes. […]

[5] = test system: primary human intestinal organoids; test: Primary human intestinal organoids, TNF-α (40 ng/mL) induced inflammation, mRNA panel of inflammation factors by qPCR
[6] = TNF-α 60 min then 10 mM for 24 hours, versus TNF-α alone
[7] = ex vivo colon tissue, data not shown
[8] = TNF-α 40 ng/mL, sodium salts at 10 μM, 18 hours, versus TNF-α alone

(R)-3-hydroxybutyrate [(R)-3-HB]
mRNA expression of NF-κB [1]: decreased | mRNA expression of TNF-α [1]: decreased | impact on IL-23 expression compared with butyrate [2]: greater reducing impact | impact on IL-23 expression compared with butyrate ([2]; listed as (R)-3HB): greater reducing effect | concentrations effective at reducing expression of IL-23 ([2]; sodium salts): 10 to 100 µM | protein concentration of IL-1β [3, 6]: decreased | protein concentration of IL-6 [3, 6]: decreased | protein concentration of IL-12 [3, 6]: decreased | protein concentration of anti-inflammatory cytokine IL-10 [3, 6]: increased | effect on major protective regulators of intestinal inflammation compared with butyrate [3, 7]: greater inducing effect | effect on multiple pro-inflammatory regulators of IBD compared with butyrate [3, 7]: greater reducing effect | protein concentration of IL-23 (relative abundance, non-quantitative) [4]: decreased | protein concentration of MMP9 (relative abundance, non-quantitative) [4]: decreased | protein concentration of TNF-α (relative abundance, non-quantitative) [4]: decreased | mRNA expression of IL-6 [5, 8]: decreased | mRNA expression of IL-23 [5, 8]: decreased | mRNA expression of NF-κβ [5, 8]: decreased | mRNA expression of TNF-α [5, 8]: decreased | mRNA expression of anti-inflammatory cytokine IL-10 [5, 8]: increased | mRNA expression of anti-inflammatory cytokine TGF-β1 [5, 8]: increased | effect on major protective regulators of intestinal inflammation compared with butyrate ([5]; organoids, data not shown): greater inducing effect | effect on multiple pro-inflammatory regulators of IBD compared with butyrate ([5]; organoids, data not shown): greater reducing effect
